Tested on: S. hominis ATCC 27844
Assay: Malodour assay using lead acetate method (H2S formation by S. hominis, 96-well plate)
Format: cell-based
Settings: for (%) Malodour generated: bacterial control = 100; for % malodour generation as compared to pectin: malodour assay, carbohydrates at 2 wt. %
Procedure: The test organisms was grown on TSA (Tryptic Soya Agar) plates overnight (22±2 hr). The organism was not more than 3 passages removed from the original source. The cell number was adjusted by re-suspending it in a suitable amount of physiological saline sufficient to achieve the required cell number based on optical density of the cells. The optical density (OD at 620 nm) of the cells were standardized to the cell number for the test organism using a spectrophotometer. A minimum final suspension of 1.0×10^8 CFU/mL was achieved by adjusting the OD to 0.2 in saline for the malodour assay. A 1% lead acetate solution was made in distilled water. Whatmann filter paper (cut in the size that could be placed over the wells of a well plate) was dipped in the lead acetate solution. The excess solution was drained and allowed to dry in Laminar Air Flow for 30 minutes. Stock solutions of the actives were prepared for performing the assay. A 0.5% citrus pectin was prepared by weighing 0.05 g of pectin in 10 ml sterile distilled water under magnetic stirrer for 30 min. A 1:10 dilution of this stock was prepared in sterile distilled water to achieve a final stock of 0.05% citrus pectin to perform the assay. A 1% stock of niacinamide was prepared by weighing 0.1 g in 10 ml sterile distilled water. The malodour assay was adapted from the method of Moore et al, 2003 and modified into a 96 well plate format. 100 μl Tryptic Soy Broth (TSB) with 0.1% L-cysteine-HCl was added into the wells of the 96-well plate. 20 μl of 0.2 OD culture of S. hominis was then added into the wells. The actives were added from the stock solutions at required concentrations and made up the volume to 200 μl with addition of sterile distilled water. The assay was done in triplicates. The lead acetate paper was placed over the wells and the lid of the 96-well plate was closed and incubated at 37° C. incubator overnight. After the incubation time, the dark coloration of the lead acetate paper was observed. Visible blackening of lead acetate in the area over the well indicated the presence of H2S. The intensity of the colour was recorded using a reflectometer as L*a*b* values. The difference between the initial and final L*a*b* values ΔE, was used to quantify malodour formation. The percentage malodour was calculated from ΔE measured using the above assay for the various actives or combinations.

[1] = Table 2, comparative carbohydrates at 2 wt. %
[2] = Table 1, active wt % as given per example, S. hominis in TSB with 0.1% L-cysteine-HCl, 37° C. overnight, calculated from ΔE

| Compound | (%) Malodour generated [1] [%] | % malodour generation as compared to pectin (Table 2) | (%) Malodour generated [2] [%] |
| --- | --- | --- | --- |
| O=C[C@H](O)[C@@H](O)[C@@H](O)[C@H](O)CO [J, Galactose] | 90 | higher |  |
| NC(=O)c1cccnc1 [D, Niacinamide] |  |  | 71 |
| OC[C@H]1O[C@@](CO)(O[C@H]2O[C@H](CO)[C@@H](O)[C@H](O)[C@H]2O)[C@@H](O)[C@@H]1O [F, Sucrose] | 100 | higher |  |
| NC(=O)c1cccnc1 [C, Niacinamide] |  |  | 89 |

Reference: patent US20240390256A1, “A DEODORANT COMPOSITION” (priority 2021, published 2024)
